Source: paper PMC4376724, “Differential Phenotypic and Functional Profiles of TcCA-2 -Specific Cytotoxic CD8^+ T Cells in the Asymptomatic versus Cardiac Phase in Chagasic Patients” (PLoS ONE, 2015)

Tested on: PBMC from HLA-A*02:01 Chagas disease patients and healthy donors
Assay: Cytokine secretion test (Bio-Plex multiplex immunoassay) in PBMC supernatants
Assay type: cell-based, human
Details: 1 μM peptide, 30 h; for Patients whose cells recognized the peptide by secreting IFN-γ, TNF-α and IL-6: positive = at least three folds non-peptide control and ≥15 pg/mL IL-6, ≥5 pg/mL IFN-γ and TNF-α; for IFNγ / IL6 / TNFα: non-peptide control subtracted
Description: For the screening of the recognition of TcCA-2 epitopes by Chagas disease patients, 10 HLA-A*02:01 adult patients in the asymptomatic phase of the disease (IND) were enrolled. For cytotoxicity, functional activity determinations and phenotypic characterization another group of 19 HLA-A*02:01 adults Chagas disease patients and 9 healthy donors were analyzed. These patients were at the chronic stage of the disease and were considered to be at the asymptomatic phase (IND, n = 8) if there was no evidence of having cardiac or gastrointestinal disorders. Chronic Chagas cardiomyopathy patients (CCC, n = 11) were stratified into G1 to G3 stages following Kuschnir classification according to clinical criteria and radiological, electrocardiographic and echocardiography analyses. The number of patients was the one recommended by the Hospital Ethical Committee. […] The patients were enrolled in both studies (functional and phenotypic characterization, IND n = 6 and CCC n = 7) when the available number of purified PBMC (limited by the cellular number isolated from each subject) was enough for both analyses. Another four CCC patients had to be enrolled to perform the phenotypic analysis in order to reach statistical significance.
Cytokine secretion (IL-4, IL-10, IL-6, IFN-γ, TNF-α) was determined in the supernatants of PBMC from Chagas disease patients and healthy donors, after in vitro stimulation with 1 μM of each peptide for 30 h at 37°C in RPMI supplemented with 10% iFBS as explained before. The secretion profile was determined by using a bead-based multiplex immunoassay system (Bio-Plex, Bio-Rad), following the manufacturer's instructions. The response was considered positive if an increase in the secretion of cytokines was at least three folds higher than the secretion by un-stimulated cells (basal secretion level) and at least, 4 pg/mL for IL-4, 2 pg/mL for IL-10, 15 pg/mL for IL-6 and 5 pg/mL for IFN-γ and TNF-α. The positive control consisted of 50 ng/mL Phorbol 12 myristate 13-acetate (PMA) and 500 ng/mL ionomycin (Sigma). Cytokine levels were quantified in each sample by using the Bio-Plex Manager software 4.1 (Bio-Rad).
Functional analysis of the epitope-specific CD8^+ T cells was carried out by the determination of the secretion profile of IFN-γ, TNF-α, IL-4, IL10 and IL-6 cytokines. […] CD8^+ T cells from 2 out of 11 patients responded to stimulation with peptide TcCA-2_273-281 by secreting IL-6. […] There was no secretion of IL-4 and IL-10 in PBMC after stimulation with any one of the four TcCA-2 peptides (data not shown). IFN-γ, TNF-α and IL6 cytokines secretion levels were higher in patients at the asymptomatic phase of the disease than in Chagas patients with associated cardiomyopathy.

Sequence: ALRNLRVFL [TcCA-2_607-615]
- Patients whose cells recognized the peptide by secreting IFN-γ, TNF-α and IL-6 (PBMC of Chagas patients): 2 out of the 14
- IFNγ (PBMC of patient CCC I 456): 3 pg/mL
- IL6 (PBMC of patient CCC I 456): 18 pg/mL
- TNFα (PBMC of patient CCC I 456): 12 pg/mL
- IFNγ (PBMC of patient CCC I 770): 0 pg/mL
- IL6 (PBMC of patient CCC I 770): 49 pg/mL
- TNFα (PBMC of patient CCC I 770): 16 pg/mL
- IFNγ (PBMC of patient CCC I 861): 0 pg/mL
- IL6 (PBMC of patient CCC I 861): -7 pg/mL
- TNFα (PBMC of patient CCC I 861): -3 pg/mL
- IFNγ (PBMC of patient CCC I 884): 0 pg/mL
- IL6 (PBMC of patient CCC I 884): 0 pg/mL
- TNFα (PBMC of patient CCC I 884): 0 pg/mL
- IFNγ (PBMC of patient CCC II 142): 0 pg/mL
- IL6 (PBMC of patient CCC II 142): -4 pg/mL
- TNFα (PBMC of patient CCC II 142): -15 pg/mL
- IFNγ (PBMC of patient CCC III 509): 0 pg/mL
- IL6 (PBMC of patient CCC III 509): -5 pg/mL
- TNFα (PBMC of patient CCC III 509): -4 pg/mL
- IFNγ (PBMC of patient CCC III 797): -5 pg/mL
- IL6 (PBMC of patient CCC III 797): 9 pg/mL
- TNFα (PBMC of patient CCC III 797): 3 pg/mL
- IFNγ (PBMC of patient IND 265): 81 pg/mL
- IL6 (PBMC of patient IND 265): 1127 pg/mL
- TNFα (PBMC of patient IND 265): 83 pg/mL
- IFNγ (PBMC of patient IND 283): 15 pg/mL
- IL6 (PBMC of patient IND 283): 55 pg/mL
- TNFα (PBMC of patient IND 283): 26 pg/mL
- IFNγ (PBMC of patient IND 365): 5 pg/mL
- IL6 (PBMC of patient IND 365): 23 pg/mL
- TNFα (PBMC of patient IND 365): 23 pg/mL
- IFNγ (PBMC of patient IND 388): 1 pg/mL
- IL6 (PBMC of patient IND 388): 32 pg/mL
- TNFα (PBMC of patient IND 388): -11 pg/mL
- IFNγ (PBMC of patient IND 510): 0 pg/mL
- IL6 (PBMC of patient IND 510): -1 pg/mL
- TNFα (PBMC of patient IND 510): 2 pg/mL
- IFNγ (PBMC of patient IND 535): 0 pg/mL
- IL6 (PBMC of patient IND 535): -5 pg/mL
- TNFα (PBMC of patient IND 535): -1 pg/mL
- IFNγ (PBMC of patient IND 917): 1 pg/mL
- IL6 (PBMC of patient IND 917): -2 pg/mL
- TNFα (PBMC of patient IND 917): -3 pg/mL
- IFNγ (PBMC of subject HD 001): 1 pg/mL
- IL6 (PBMC of subject HD 001): -6 pg/mL
- TNFα (PBMC of subject HD 001): -14 pg/mL
- IFNγ (PBMC of subject HD 004): 0 pg/mL
- IL6 (PBMC of subject HD 004): -5 pg/mL
- TNFα (PBMC of subject HD 004): 0 pg/mL
- IFNγ (PBMC of subject HD 005): -21 pg/mL
- IL6 (PBMC of subject HD 005): -77 pg/mL
- TNFα (PBMC of subject HD 005): -2 pg/mL
- IFNγ (PBMC of subject HD 006): 13 pg/mL
- IL6 (PBMC of subject HD 006): 69 pg/mL
- TNFα (PBMC of subject HD 006): 5 pg/mL
- IFNγ (PBMC of subject HD 008): 3 pg/mL
- IL6 (PBMC of subject HD 008): 22 pg/mL
- TNFα (PBMC of subject HD 008): 0 pg/mL
- IFNγ (PBMC of subject HD 011): 0 pg/mL
- IL6 (PBMC of subject HD 011): -12 pg/mL
- TNFα (PBMC of subject HD 011): -8 pg/mL
- IFNγ (PBMC of subject HD 340): 0 pg/mL
- IL6 (PBMC of subject HD 340): 6 pg/mL
- TNFα (PBMC of subject HD 340): 0 pg/mL
- IFNγ (PBMC of subject HD 664): -3 pg/mL
- IL6 (PBMC of subject HD 664): 0 pg/mL
- TNFα (PBMC of subject HD 664): 0 pg/mL

Sequence: TVFDASRSTV [TcCA-2_442-451]
- Patients whose cells recognized the peptide by secreting IFN-γ, TNF-α and IL-6 (PBMC of Chagas patients): 2 out of 14
- Patients whose cells recognized the peptide by secreting TNF-α and IL-6 (PBMC of Chagas patients, same positivity criteria): 2 out of 14
- IFNγ (PBMC of patient CCC I 456): 4 pg/mL
- IL6 (PBMC of patient CCC I 456): 46 pg/mL
- TNFα (PBMC of patient CCC I 456): 6 pg/mL
- IFNγ (PBMC of patient CCC I 770): -2 pg/mL
- IL6 (PBMC of patient CCC I 770): 3 pg/mL
- TNFα (PBMC of patient CCC I 770): -11 pg/mL
- IFNγ (PBMC of patient CCC I 861): 0 pg/mL
- IL6 (PBMC of patient CCC I 861): -4 pg/mL
- TNFα (PBMC of patient CCC I 861): -3 pg/mL
- IFNγ (PBMC of patient CCC I 884): 0 pg/mL
- IL6 (PBMC of patient CCC I 884): 0 pg/mL
- TNFα (PBMC of patient CCC I 884): 0 pg/mL
- IFNγ (PBMC of patient CCC II 142): 2 pg/mL
- IL6 (PBMC of patient CCC II 142): -3 pg/mL
- TNFα (PBMC of patient CCC II 142): -20 pg/mL
- IFNγ (PBMC of patient CCC III 509): 0 pg/mL
- IL6 (PBMC of patient CCC III 509): -4 pg/mL
- TNFα (PBMC of patient CCC III 509): -5 pg/mL
- IFNγ (PBMC of patient CCC III 797): 3 pg/mL
- IL6 (PBMC of patient CCC III 797): 31 pg/mL
- TNFα (PBMC of patient CCC III 797): 7 pg/mL
- IFNγ (PBMC of patient IND 265): 204 pg/mL
- IL6 (PBMC of patient IND 265): 1641 pg/mL
- TNFα (PBMC of patient IND 265): 160 pg/mL
- IFNγ (PBMC of patient IND 283): 12 pg/mL
- IL6 (PBMC of patient IND 283): 80 pg/mL
- TNFα (PBMC of patient IND 283): 35 pg/mL
- IFNγ (PBMC of patient IND 365): 0 pg/mL
- IL6 (PBMC of patient IND 365): 7 pg/mL
- TNFα (PBMC of patient IND 365): 15 pg/mL
- IFNγ (PBMC of patient IND 388): 1 pg/mL
- IL6 (PBMC of patient IND 388): 21 pg/mL
- TNFα (PBMC of patient IND 388): -10 pg/mL
- IFNγ (PBMC of patient IND 510): 0 pg/mL
- IL6 (PBMC of patient IND 510): 1 pg/mL
- TNFα (PBMC of patient IND 510): 1 pg/mL
- IFNγ (PBMC of patient IND 535): 0 pg/mL
- IL6 (PBMC of patient IND 535): -6 pg/mL
- TNFα (PBMC of patient IND 535): -1 pg/mL
- IFNγ (PBMC of patient IND 917): -1 pg/mL
- IL6 (PBMC of patient IND 917): -13 pg/mL
- TNFα (PBMC of patient IND 917): -4 pg/mL
- IFNγ (PBMC of subject HD 001): 4 pg/mL
- IL6 (PBMC of subject HD 001): 18 pg/mL
- TNFα (PBMC of subject HD 001): -6 pg/mL
- IFNγ (PBMC of subject HD 004): 0 pg/mL
- IL6 (PBMC of subject HD 004): -15 pg/mL
- TNFα (PBMC of subject HD 004): -1 pg/mL
- IFNγ (PBMC of subject HD 005): 5 pg/mL
- IL6 (PBMC of subject HD 005): 16 pg/mL
- TNFα (PBMC of subject HD 005): -1 pg/mL
- IFNγ (PBMC of subject HD 006): 2 pg/mL
- IL6 (PBMC of subject HD 006): -2 pg/mL
- TNFα (PBMC of subject HD 006): 2 pg/mL
- IFNγ (PBMC of subject HD 008): 1 pg/mL
- IL6 (PBMC of subject HD 008): 31 pg/mL
- TNFα (PBMC of subject HD 008): 15 pg/mL
- IFNγ (PBMC of subject HD 011): 8 pg/mL
- IL6 (PBMC of subject HD 011): 54 pg/mL
- TNFα (PBMC of subject HD 011): 10 pg/mL
- IFNγ (PBMC of subject HD 340): 2 pg/mL
- IL6 (PBMC of subject HD 340): 11 pg/mL
- TNFα (PBMC of subject HD 340): 3 pg/mL
- IFNγ (PBMC of subject HD 664): -3 pg/mL
- IL6 (PBMC of subject HD 664): 0 pg/mL
- TNFα (PBMC of subject HD 664): 0 pg/mL
